Test results from US9487519B2, “5,6-Dialkyl-7-aminotriazolopyrimidines, their preparation and their use for controlling harmful fungi, and compositions comprising these compounds” (BASF SE, priority 2004, dated 2016).

Experiments:
Plasmopara viticola = assay: Activity against Peronospora of grapevines caused by Plasmopara viticola (Use Example 1); format: in vivo; details: 250 ppm, potted vines sprayed to runoff, inoculated next day; untreated plants 95% infected
Description: The active compounds were prepared as a stock solution comprising 25 mg of active compound which was made up to 10 ml using a mixture of acetone and/or DMSO and the emulsifier Uniperol® EL (wetting agent having emulsifying and dispersing agent based on ethoxylated alkylphenols) in a ratio by volume of solvent/emulsifier of 99/1. The mixture was then made up to 100 ml with water. This stock solution was, using the solvent/emulsifier/water mixture described, diluted to the active compound concentration stated below.
Leaves of potted vines were sprayed to runoff point with an aqueous suspension having the concentration of active compound stated below. The next day, the undersides of the leaves were inoculated with an aqueous sporangia suspension of Plasmopara viticola. The vines were then initially placed in a water-vapor-saturated chamber at 24° C. for 48 hours and then in a greenhouse at temperatures between 20° C. and 30° C. for 5 days. After this time, the plants were once more placed in a humid chamber for 16 hours to promote the eruption of sporangiophores. The extent of the development of the infection on the undersides of the leaves was then determined visually.

Phytophthora infestans = format: in vivo; details: 250 ppm, potted tomato plants sprayed to runoff, infected next day, assessed after 6 days; untreated plants 100% infected

## CCCCCCCCc1c(CC)nc2ncnn2c1N [I-2, 7-amino-5-ethyl-6-octyl[1,2,4]triazolo[1,5-a]pyrimidine]
Plasmopara viticola
  infection on the undersides of the leaves, determined visually: no infection
Phytophthora infestans
  infection (late blight), determined visually: no infection
